PubChem BioAssay AID1918942 (Molecular Pharmacology Branch, DTP, NCI, 2023)
Several values for one entry are separate records, joined by “and”; a condition that tells them apart may be missing. Equal values may be shown once.

Tested on: 743489-274-T-PDC complex spheroid viability
Assay: Anticancer human tumor 743489-274-T-PDC patient-derived renal cell carcinoma cell line growth inhibition
Conditions: for viability, T/C: stronger effect = lower value
How it was run: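 Multicellular complex spheroids of tumor cells with human endothelial cells (HUVEC) and mesenchymal stem cells; the LSD1 inhibitor iadademstat was combined with standard-of-care or investigational agents. Top concentration at or near clinical Cmax, half-log dilutions; final DMSO ≤0.25%.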

[1] = curve of first compound, second compound 0.1 µM
[2] = curve of first compound, second compound 0.316 µM
[3] = curve of first compound, second compound 1 µM
[4] = curve of first compound, second compound 3.16 µM
[5] = curve of first compound, second compound 10 µM
[6] = second compound 0.1 µM, first compound 0.00316 µM
[7] = second compound 0.1 µM, first compound 0.01 µM
[8] = second compound 0.1 µM, first compound 0.0316 µM
[9] = second compound 0.1 µM, first compound 0.1 µM
[10] = second compound 0.316 µM, first compound 0.00316 µM
[11] = second compound 0.316 µM, first compound 0.01 µM
[12] = second compound 0.316 µM, first compound 0.0316 µM
[13] = second compound 0.316 µM, first compound 0.1 µM
[14] = second compound 1 µM, first compound 0.00316 µM
[15] = second compound 1 µM, first compound 0.01 µM
[16] = second compound 1 µM, first compound 0.0316 µM
[17] = second compound 1 µM, first compound 0.1 µM
[18] = second compound 3.16 µM, first compound 0.00316 µM
[19] = second compound 3.16 µM, first compound 0.01 µM
[20] = second compound 3.16 µM, first compound 0.0316 µM
[21] = second compound 3.16 µM, first compound 0.1 µM
[22] = second compound 10 µM, first compound 0.00316 µM
[23] = second compound 10 µM, first compound 0.01 µM
[24] = second compound 10 µM, first compound 0.0316 µM
[25] = second compound 10 µM, first compound 0.1 µM
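Further: spheroids exposed to compounds for 7 days before readout.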
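Wherever viability, T/C is given: 100% = DMSO vehicle control wells.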

**Q.** Which IC50 [1] does the source give for `CC(C)CC(NC(=O)CNC(=O)c1cc(Cl)ccc1Cl)B1OC(=O)CC(CC(=O)O)(C(=O)O)O1` (stereo unspecified) + NC1CCC(NC2CC2c2ccccc2)CC1 here?
**A.** The IC50 was over 0.1 µM.

**Q.** And the IC50 [2]?
**A.** Its IC50 is 0.0925 µM.

**Q.** And the IC50 [3]?
**A.** Its IC50 is over 0.1 µM.

**Q.** What about the IC50 [4] of the same compound?
**A.** Its IC50 is over 0.1 µM.

**Q.** And the IC50 [5]?
**A.** Its IC50 is 0.0865 µM.

**Q.** And the viability, T/C (second compound 0.1 µM, first compound 0.000316 µM)?
**A.** The viability, T/C was 95.9%.

**Q.** What about the viability, T/C (second compound 0.1 µM, first compound 0.001 µM) of the same compound?
**A.** The viability, T/C was 105%.

**Q.** And the viability, T/C [6]?
**A.** Its viability, T/C is 109%.

**Q.** And the viability, T/C [7]?
**A.** The viability, T/C was 80.4%.

**Q.** And the viability, T/C [8]?
**A.** Its viability, T/C is 72.6%.

**Q.** What about the viability, T/C [9] of the same compound?
**A.** The viability, T/C was 60.7%.

**Q.** What about the viability, T/C (second compound 0.316 µM, first compound 0.000316 µM) of the same compound?
**A.** The viability, T/C was 119%.

**Q.** And the viability, T/C (second compound 0.316 µM, first compound 0.001 µM)?
**A.** The viability, T/C was 123%.

**Q.** What about the viability, T/C [10] of the same compound?
**A.** The viability, T/C was 108%.

**Q.** And the viability, T/C [11]?
**A.** Its viability, T/C is 80.5%.

**Q.** And the viability, T/C [12]?
**A.** The viability, T/C was 79.8%.

**Q.** And the viability, T/C [13]?
**A.** Its viability, T/C is 46.6%.

**Q.** What about the viability, T/C (second compound 1 µM, first compound 0.000316 µM) of the same compound?
**A.** The viability, T/C was 120%.

**Q.** And the viability, T/C (second compound 1 µM, first compound 0.001 µM)?
**A.** The viability, T/C was 120%.

**Q.** And the viability, T/C [14]?
**A.** The viability, T/C was 108%.

**Q.** What about the viability, T/C [15] of the same compound?
**A.** The viability, T/C was 98.1%.

**Q.** What about the viability, T/C [16] of the same compound?
**A.** The viability, T/C was 78.4%.

**Q.** And the viability, T/C [17]?
**A.** Its viability, T/C is 51.9%.

**Q.** And the viability, T/C (second compound 3.16 µM, first compound 0.000316 µM)?
**A.** Its viability, T/C is 104%.

**Q.** What about the viability, T/C (second compound 3.16 µM, first compound 0.001 µM) of the same compound?
**A.** The viability, T/C was 113%.

**Q.** What about the viability, T/C [18] of the same compound?
**A.** The viability, T/C was 105%.

**Q.** And the viability, T/C [19]?
**A.** Its viability, T/C is 89.1%.

**Q.** And the viability, T/C [20]?
**A.** The viability, T/C was 92.6%.

**Q.** And the viability, T/C [21]?
**A.** Its viability, T/C is 48.9%.

**Q.** What about the viability, T/C (second compound 10 µM, first compound 0.000316 µM) of the same compound?
**A.** The viability, T/C was 134%.

**Q.** What about the viability, T/C (second compound 10 µM, first compound 0.001 µM) of the same compound?
**A.** The viability, T/C was 107%.

**Q.** And the viability, T/C [22]?
**A.** Its viability, T/C is 100%.

**Q.** And the viability, T/C [23]?
**A.** Its viability, T/C is 100%.

**Q.** What about the viability, T/C [24] of the same compound?
**A.** The viability, T/C was 76.6%.

**Q.** And the viability, T/C [25]?
**A.** Its viability, T/C is 43.9%.

**Q.** Which results are given for `O=C(C=Cn1cnc(-c2cc(C(F)(F)F)cc(C(F)(F)F)c2)n1)NNc1cnccn1` + NC1CCC(NC2CC2c2ccccc2)CC1?
**A.** IC50 [1]: > 1 µM; IC50 [2]: > 1 µM; IC50 [3]: > 1 µM; IC50 [4]: > 1 µM; IC50 [5]: > 1 µM; viability, T/C [6]: 102%; viability, T/C [7]: 112%; viability, T/C [8]: 113%; viability, T/C [9]: 114%; viability, T/C (second compound 0.1 µM, first compound 0.316 µM): 102%; viability, T/C (second compound 0.1 µM, first compound 1 µM): 96%; viability, T/C [10]: 95%; viability, T/C [11]: 107%; viability, T/C [12]: 131%; viability, T/C [13]: 106%; viability, T/C (second compound 0.316 µM, first compound 0.316 µM): 97.8%; viability, T/C (second compound 0.316 µM, first compound 1 µM): 81.3%; viability, T/C [14]: 103%; viability, T/C [15]: 119%; viability, T/C [16]: 130%; viability, T/C [17]: 113%; viability, T/C (second compound 1 µM, first compound 0.316 µM): 91.6%; viability, T/C (second compound 1 µM, first compound 1 µM): 81.8%; viability, T/C [18]: 112%; viability, T/C [19]: 121%; viability, T/C [20]: 140%; viability, T/C [21]: 116%; viability, T/C (second compound 3.16 µM, first compound 0.316 µM): 91.8%; viability, T/C (second compound 3.16 µM, first compound 1 µM): 82.5%; viability, T/C [22]: 120%; viability, T/C [23]: 124%; viability, T/C [24]: 126%; viability, T/C [25]: 113%; viability, T/C (second compound 10 µM, first compound 0.316 µM): 102%; viability, T/C (second compound 10 µM, first compound 1 µM): 95.9%

**Q.** How did the viability, T/C (compound 0.0316 µM) turn out when `CC(C)c1c(-c2ccccc2)nc2c(C#N)c[nH]n2c1=O` was run?
**A.** The viability, T/C was 106% and 94.8%.

**Q.** And the viability, T/C (compound 0.1 µM)?
**A.** The viability, T/C was 100% and 102%.

**Q.** And the viability, T/C (compound 0.316 µM)?
**A.** Its viability, T/C is 86.4% and 102%.

**Q.** And the viability, T/C (compound 1 µM)?
**A.** Its viability, T/C is 96% and 107%.

**Q.** And the viability, T/C (compound 3.16 µM)?
**A.** The viability, T/C was 93.2% and 93.5%.

**Q.** What about the IC50 (curve of compound) of the same compound?
**A.** Its IC50 is over 10 µM.
